Tested on: 855422-203-R-J1-PDC complex spheroids, viability
Test: Anticancer human tumor 855422-203-R-J1-PDC patient-derived bladder carcinoma cell line growth inhibition [CLK]
Details: for IC50: curve of first compound; for viability, T/C: stronger effect = lower value
Source text: A high-throughput screen of multi-cell type tumor spheroids was designed to identify active combinations of […] and targeted small molecules. Complex spheroids include a stromal component modeled by human endothelial cells (HUVEC) and fibroblasts modeled by human mesenchymal stem cells (MSCs). The concentration ranges selected for each drug and investigational agent were based upon clinically achievable concentrations if the clinical Cmax of the agent was known.
Compounds. The drugs and investigational agents: cirtuvivint (SM08502; NSC835563), CC-671 (NSC850746), vemurafenib (NSC761431), tapotoclax (NSC804041), sotorasib (NSC818433), adagrasib (NSC831453), MRTX-1133 (NSC836407), BAY2416964 (NSC825713), copanlisib (NSC816437), inavolisib (NSC800729), abemaciclib (NSC768073), osimertinib (NSC779217), entinostat (NSC756642), eltanexor (KPT-8602, NSC794443), venetoclax (NSC766270), ceralasertib (NSC777638), bortezomib (NSC756655), olaparib (NSC753686), talazoparib (NSC767125), alisertib (NSC759677), peposertib (NSC802822), gemcitabine (NSC613327), 5-fluorouracil (NSC19893), SN-38 (NSC673596), oxaliplatin (NSC266046), paclitaxel (NSC125973), and doxorubicin (NSC123127), were obtained from the National Cancer Institute (NCI) Developmental Therapeutics Program Chemical Repository. The FDA-approved anticancer drug set is available from the Developmental Therapeutics Program at https://dtp.cancer.gov/organization/dscb/obtaining/available plates.htm. […] The stock solutions were prepared in dimethyl sulfoxide (DMSO, Sigma-Aldrich, St. Louis, MO, cat. D2650), except for the platinum complexes which were prepared in saline (Quality Biological, Gaithersburg, MD, cat. 114-055-101), at 800-fold the tested concentration and stored at -70 degrees C prior to their use. All drugs and investigational agents were tested over a range starting from a high concentration at or near the clinical Cmax and decreasing in half-log increments. If the clinical Cmax for an agent had not been determined, the highest concentration tested was 10 microM.
Cell Culture. All cells were maintained in an incubator at 37 degrees C and 5% CO2 with 95% humidity. The PDC lines were cultured according to standard operating procedures established by the NCI PDMR. Briefly, all PDCs were thawed and cultured in Matrigel-coated flasks prepared with a working solution of 1X Ham's F-12 nutrient mix, without supplementation (Invitrogen, Waltham, MA, cat. 11765054), 100 U/mL penicillin-streptomycin (Invitrogen, cat. 15140122), and 2.5% Matrigel (Corning Inc., Corning, NY, cat. 354248) for the first three passages. The 947758-054-R-J2-PDC line was cultured in 6B/Colon 1A media, which includes advanced DMEM/F-12 (Thermo Fisher Scientific, cat. 12634028), 10 mM HEPES (Thermo Fisher Scientific, cat. 15630080), 1X GlutaMAX supplement (Thermo Fisher Scientific, cat. 35050061), 0.1 mg/mL primocin (InvivoGen, cat. ant-pm-2), 10% defined fetal bovine serum, heat inactivated (HyClone Laboratories Inc., cat. SH30070.03HI), 1.25 mM N-Acetyl-L-cysteine (Sigma-Aldrich, cat. A9165), 10 mM nicotinamide (Sigma-Aldrich, cat. N0636), 1X B-27 supplement (Thermo Fisher Scientific, cat. 17504044), 1X N-2 supplement (Thermo Fisher Scientific, cat. 17502048), and 10 microM Y-27632 dihydrochloride (Tocris Bioscience, cat. 1254). The 876862-298-R-J1-PDC was cultured in 6E media, which includes all 6B/Colon 1A media components plus 50% L-WRN conditioned media (ATCC, cat. CRL-3276), 50 ng/mL recombinant human EGF recombinant protein (hEGF; Thermo Fisher Scientific, cat. PHG0311), 10 ng/mL recombinant human fibroblast growth factor 10 (hGFG-10; PeproTech, cat. 100-26), 1 ng/mL recombinant human fibroblast growth factor 2 (hFGF-2; PeproTech, cat. 100-18B), and 1 µM prostaglandin E2 (PGE2; Tocris, cat. 2296). The 227483-062-R1-J1-PDC line was cultured in Panc media, containing all 6E components except hFGF-2, with the addition of 500 nM SB-431542 (Selleckchem, cat. S1067) and 10 nM gastrin (Tocris, cat. 3006). […]

[1] = second compound 0.0316 µM, first compound 0.0316 µM
[2] = second compound 0.0316 µM, first compound 0.1 µM
[3] = second compound 0.0316 µM, first compound 0.316 µM
[4] = second compound 0.0316 µM, first compound 1 µM
[5] = second compound 0.0316 µM, first compound 3.16 µM
[6] = second compound 0.0316 µM, first compound 10 µM
[7] = second compound 0.1 µM, first compound 0.0316 µM
[8] = second compound 0.1 µM, first compound 0.1 µM
[9] = second compound 0.1 µM, first compound 0.316 µM
[10] = second compound 0.1 µM, first compound 1 µM
[11] = second compound 0.1 µM, first compound 3.16 µM
[12] = second compound 0.1 µM, first compound 10 µM
[13] = second compound 0.316 µM, first compound 0.0316 µM
[14] = second compound 0.316 µM, first compound 0.1 µM
[15] = second compound 0.316 µM, first compound 0.316 µM
[16] = second compound 0.316 µM, first compound 1 µM
[17] = second compound 0.316 µM, first compound 3.16 µM
[18] = second compound 0.316 µM, first compound 10 µM
[19] = second compound 1 µM, first compound 0.0316 µM
[20] = second compound 1 µM, first compound 0.1 µM
[21] = second compound 1 µM, first compound 0.316 µM
[22] = second compound 1 µM, first compound 1 µM
[23] = second compound 1 µM, first compound 3.16 µM
[24] = second compound 1 µM, first compound 10 µM
[25] = second compound 3.16 µM, first compound 0.0316 µM
[26] = second compound 3.16 µM, first compound 0.1 µM
[27] = second compound 3.16 µM, first compound 0.316 µM
[28] = second compound 3.16 µM, first compound 1 µM
[29] = second compound 3.16 µM, first compound 3.16 µM
[30] = second compound 3.16 µM, first compound 10 µM
[31] = second compound 10 µM, first compound 0.0316 µM
[32] = second compound 10 µM, first compound 0.1 µM
[33] = second compound 10 µM, first compound 0.316 µM
[34] = second compound 10 µM, first compound 1 µM
[35] = second compound 10 µM, first compound 3.16 µM
[36] = second compound 10 µM, first compound 10 µM
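Further: spheroids exposed to drugs for seven days before readout.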
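Wherever viability, T/C is given: 100% = DMSO vehicle control wells.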

Work on `C#Cc1c(F)ccc2cc(O)cc(-c3ncc4c(N5CC6CCC(C5)N6)nc(OCC56CCCN5CC(F)C6)nc4c3F)c12` (stereo unspecified) + CN1CCN(c2cc(C(=O)Nc3cc4cc(-c5cnn(C)c5)ccc4cn3)ccn2)CC1 yielded an IC50 (second compound 0.0316 µM) greater than 10000 nM, an IC50 (second compound 0.1 µM) greater than 10000 nM and an IC50 (second compound 0.316 µM) of less than 31.6 nM. For the same molecule, the IC50 (second compound 1 µM) was less than 31.6 nM, the IC50 (second compound 3.16 µM) was less than 31.6 nM and the IC50 (second compound 10 µM) was less than 31.6 nM. For the same molecule, the viability, T/C [1] was 106%, the viability, T/C [2] was 98.8% and the viability, T/C [3] was 119%. It also gave a viability, T/C [4] of 98.8%, a viability, T/C [5] of 104% and a viability, T/C [6] of 113%. It also gave a viability, T/C [7] of 84.4%, a viability, T/C [8] of 84.4% and a viability, T/C [9] of 85.1%. For the same molecule, the viability, T/C [10] was 89.2%, the viability, T/C [11] was 93.3% and the viability, T/C [12] was 81.9%. For the same molecule, the viability, T/C [13] was 13%, the viability, T/C [14] was 12.4% and the viability, T/C [15] was 14.8%. The viability, T/C [16] was 15.1%, the viability, T/C [17] was 14.9% and the viability, T/C [18] was 8.68%. It also gave a viability, T/C [19] of 0.86%, a viability, T/C [20] of 0.58% and a viability, T/C [21] of 0.22%. The viability, T/C [22] was 0.24%, the viability, T/C [23] was 0.22% and the viability, T/C [24] was 0.17%. The viability, T/C [25] was 0.39%, the viability, T/C [26] was 0.72% and the viability, T/C [27] was 0.49%. The viability, T/C [28] was 0.38%, the viability, T/C [29] was 1.64% and the viability, T/C [30] was 0.18%. For the same molecule, the viability, T/C [31] was 0.42%, the viability, T/C [32] was 0.85% and the viability, T/C [33] was 0.3%. The viability, T/C [34] was 0.35%, the viability, T/C [35] was 0.3% and the viability, T/C [36] was 0.2%.
`C=C(F)C(=O)N1CCN(c2nc(OCC3CCCN3C)nc3c2CCN(c2cccc4cccc(Cl)c24)C3)CC1CC#N` (stereo unspecified) + CN1CCN(c2cc(C(=O)Nc3cc4cc(-c5cnn(C)c5)ccc4cn3)ccn2)CC1 showed an IC50 (second compound 0.0316 µM) of 2460 nM, an IC50 (second compound 0.1 µM) of 1980 nM and an IC50 (second compound 0.316 µM) of less than 31.6 nM. It also gave an IC50 (second compound 1 µM) of less than 31.6 nM, an IC50 (second compound 3.16 µM) of less than 31.6 nM and an IC50 (second compound 10 µM) of less than 31.6 nM. It also gave a viability, T/C [1] of 108%, a viability, T/C [2] of 110% and a viability, T/C [3] of 122%. It also gave a viability, T/C [4] of 115%, a viability, T/C [5] of 32% and a viability, T/C [6] of 0.22%. The viability, T/C [7] was 89.1%, the viability, T/C [8] was 86% and the viability, T/C [9] was 87.3%. It also gave a viability, T/C [10] of 95.1%, a viability, T/C [11] of 22.8% and a viability, T/C [12] of 0.8%. The viability, T/C [13] was 14.2%, the viability, T/C [14] was 14.4% and the viability, T/C [15] was 14.8%. For the same molecule, the viability, T/C [16] was 14.6%, the viability, T/C [17] was 4.45% and the viability, T/C [18] was 0.07%. For the same molecule, the viability, T/C [19] was 0.29%, the viability, T/C [20] was 0.34% and the viability, T/C [21] was 0.28%. The viability, T/C [22] was 0.26%, the viability, T/C [23] was 0.12% and the viability, T/C [24] was 1.08%. For the same molecule, the viability, T/C [25] was 0.68%, the viability, T/C [26] was 0.91% and the viability, T/C [27] was 0.57%. For the same molecule, the viability, T/C [28] was 0.77%, the viability, T/C [29] was 1.08% and the viability, T/C [30] was 0.11%. It also gave a viability, T/C [31] of 0.54%, a viability, T/C [32] of 0.51% and a viability, T/C [33] of 0.41%. For the same molecule, the viability, T/C [34] was 0.42%, the viability, T/C [35] was 0.61% and the viability, T/C [36] was 0.22%.
In the case of `CC(CO)NC(=O)c1cc(-c2ccc(Cl)cc2)nn(-c2cnn(C)c2)c1=O` (stereo unspecified) + CN1CCN(c2cc(C(=O)Nc3cc4cc(-c5cnn(C)c5)ccc4cn3)ccn2)CC1, the IC50 (second compound 0.0316 µM) is reported as greater than 10000 nM, the IC50 (second compound 0.1 µM) is reported as greater than 10000 nM and the IC50 (second compound 0.316 µM) is reported as less than 31.6 nM. For the same molecule, the IC50 (second compound 1 µM) was less than 31.6 nM, the IC50 (second compound 3.16 µM) was less than 31.6 nM and the IC50 (second compound 10 µM) was less than 31.6 nM. The viability, T/C [1] was 85.4%, the viability, T/C [2] was 97.9% and the viability, T/C [3] was 95.9%. It also gave a viability, T/C [4] of 104%, a viability, T/C [5] of 101% and a viability, T/C [6] of 90.2%. For the same molecule, the viability, T/C [7] was 72.6%, the viability, T/C [8] was 83.2% and the viability, T/C [9] was 77.1%. The viability, T/C [10] was 93.9%, the viability, T/C [11] was 90.5% and the viability, T/C [12] was 69.4%. For the same molecule, the viability, T/C [13] was 8.6%, the viability, T/C [14] was 12.4% and the viability, T/C [15] was 11.9%. The viability, T/C [16] was 12.4%, the viability, T/C [17] was 13.4% and the viability, T/C [18] was 9.74%. It also gave a viability, T/C [19] of 0.24%, a viability, T/C [20] of 0.3% and a viability, T/C [21] of 0.22%. For the same molecule, the viability, T/C [22] was 0.28%, the viability, T/C [23] was 0.25% and the viability, T/C [24] was 0.24%. For the same molecule, the viability, T/C [25] was 2.96%, the viability, T/C [26] was 0.65% and the viability, T/C [27] was 0.95%. For the same molecule, the viability, T/C [28] was 0.69%, the viability, T/C [29] was 1.1% and the viability, T/C [30] was 0.53%. For the same molecule, the viability, T/C [31] was 0.44%, the viability, T/C [32] was 0.45% and the viability, T/C [33] was 0.33%. The viability, T/C [34] was 1.12%, the viability, T/C [35] was 1.09% and the viability, T/C [36] was 0.43%.
